Test results as given in publication PMC11845477, “Exploring the principles behind antibiotics with limited resistance” (Nature Communications, 2025).
Where a SMILES comes first, the peptide text is derived from it. Bridges are numbered along the chain shown (N, C = ends). [ ]: non-standard residue; d: D form. The star is where a group is joined. X2 = CC[C@H](C)CCCCC(=O)*; Dab = NCC[C@H](N)C(=O)O

Tests used:
[1] = system: A. baumannii ATCC 17978 (SEN) and A. baumannii ATCC BAA-1605 (MDR); assay: Adaptive laboratory evolution (ALE), relative MIC of evolved lines; assay type: cell-based, Acinetobacter baumannii
Procedure, shortened: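 Ten parallel populations per antibiotic–ancestor pair were evolved in MHB at 37 °C, starting near 50% growth-inhibiting drug. Every 72 h they were passaged into 0.5–2.5× increasing concentrations, keeping the highest-drug well with OD600 > 0.2.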

E. coli ATCC25922 = assay: Dose-response killing curves (99.9% killing concentration, Hill coefficient); assay type: cell-based, Escherichia coli; details: dose-response killing curve
From the text: Fig. 9 Killing kinetics of the studied antibiotics. a Bacterial survival rate in response to toxic antibiotic exposure. […] The bars indicate the survival rate (log10) compared to the untreated initial viable cell count (see “Methods”). Data are presented as mean values of 5 biological replicates ± SEM. The antibiotic group differentiation is denoted by color. […] Survival was estimated by measuring cell viability (colony-forming units/ml) of 2 biologically independent strains following a 4-hour exposure to different concentrations of 16 antibiotics on E. coli ATCC25922 (for further details, see “Methods”). The antibiotic concentration that kills 99.9% of the E. coli population is indicated as a vertical dotted line (see Supplementary Data 5). Error bars represent standard error calculated from the colony counts by Poisson’s model. A Hill function was fitted to the dose-response data from two biological replicates, producing sigmoidal curves (Supplementary Data 5). The Hill coefficient reflects how steeply the survival rate decreases in response to increasing antibiotic concentration ([…]). […] X-axis label colors indicate mode of action groups. For detailed information on antibiotic and bacterial species, see Supplementary Data 1. Source data are provided as a Source Data file.
To test the dose range under which resistance can evolve, we employed advanced microplating and automated image analysis. We quantified bacterial population survival at varying antibiotic concentrations[62] (see “Methods”) in E. coli. Briefly, we generated dose-response curves and investigated how steeply the killing effect increases as the antibiotic concentration rises. In specific, the Hill coefficient representing each bacterial strain-antibiotic combination was calculated to quantify dose-kill kinetics.
In this current study, the killing kinetics of each antibiotic was measured according to a previously established experimental protocol[62] with minor modifications. During this assay, the bacterial cultures were exposed to antibiotics in 96-well assay plates and their viability after 4 hours of exposure was quantified by two methods: i) microplating and colony counting or ii) fluorescent staining of cells and counting of the fluorescent units.
Specifically, these experiments were performed in the following steps: (1) Preparation of bacterial stocks. Single colonies from each strain were isolated and grown overnight in MHB medium at 37 °C, 160 rpm. In case of the fluorescently tagged E. coli strains, the medium was supplemented with 10 μg/mL chloramphenicol, to maintain the pZS2R plasmid. Overnight cultures were diluted 1:5000 and grown to an optical density at 600 nm (OD600) of 0.25. These cultures were concentrated by centrifugation and small aliquots of 50 μL containing ~2.2 × 10^9 cells were frozen in glycerol (stored at −80 °C). (2) Preparing assay plates with antibiotics. 96-well plates were filled with 235 μL MHB and supplemented with antibiotics using an automated digital dispenser (D300e, Tecan). In the case of SCH79797, we used minimal media. […] For testing the clearance efficacy of each antibiotic at a single lethal dose, the 10x of the MIC for each antibiotic-strain pair were prepared in at least three replicates. (3) Antibiotic exposure. During the dose response assay, frozen cultures of the E. coli strains expressing YFP and mCherry were thawed and mixed at a 1:1 ratio, diluted 1:1000 in 30 mL MHB and incubated for 45 min at 37 °C and 160 rpm. During the single-dose assay, the frozen cultures of experimental strains (E. coli, K. pneumoniae, A. baumannii) were also thawed and diluted 1:1000 in 30 mL MHB and incubated at 37 °C to reach an OD of 0.25 and 160 rpm.

CC[C@H](C)CCCCC(=O)N[C@@H](CCN)C(=O)N[C@H](C(=O)N[C@@H](CCN)C(=O)N[C@H]1CCNC(=O)[C@H]([C@@H](C)O)NC(=O)[C@H](CCN)NC(=O)[C@H](CCN)NC(=O)[C@H](CC(C)C)NC(=O)[C@@H](Cc2ccccc2)NC(=O)[C@H](CCN)NC1=O)[C@@H](C)O [Polymyxin B] (X2-[Dab]T[Dab][Dab][Dab][dF]L[Dab][Dab]T; lactam 4-C (inferred); N-terminus assumed)
Relative MIC (log10) ([1]; AB-MDR (Acinetobacter baumannii ATCC BAA 1605), evolved line 4): 3.0103 log10 | Relative MIC (log10) ([1]; AB-MDR (Acinetobacter baumannii ATCC BAA 1605), evolved line 5): 3.0103 log10 | Relative MIC (log10) ([1]; AB-MDR (Acinetobacter baumannii ATCC BAA 1605), evolved line 6): 3.0103 log10 | Relative MIC (log10) ([1]; AB-MDR (Acinetobacter baumannii ATCC BAA 1605), evolved line 7): 3.0103 log10 | Relative MIC (log10) ([1]; AB-MDR (Acinetobacter baumannii ATCC BAA 1605), evolved line 9): 3.0103 log10 | Relative MIC (log10) ([1]; AB-SEN (Acinetobacter baumannii ATCC 17978), evolved line 1): 2.709 log10 | Relative MIC (log10) ([1]; AB-SEN (Acinetobacter baumannii ATCC 17978), evolved line 2): 2.709 log10 | Relative MIC (log10) ([1]; AB-SEN (Acinetobacter baumannii ATCC 17978), evolved line 4): 2.709 log10 | Relative MIC (log10) ([1]; AB-SEN (Acinetobacter baumannii ATCC 17978), evolved line 6): 2.709 log10 | Relative MIC (log10) ([1]; AB-SEN (Acinetobacter baumannii ATCC 17978), evolved line 9): 2.408 log10 | Steepness (Hill Coefficient) (E. coli ATCC25922): 46.82 | 99.9% killing (10^-3) (E. coli ATCC25922; unit not given): 1.08
